Test results from US20020137929A1, “1 - (3-heterocyclylphenyl) isothiourea, -isourea, -guanidine and -amidine herbicidal agents” (Intellectual Property Department, BASF Aktiengesellschaft, priority 1998, published 2002).

Assays:
[1] = test system: TRZAWR (Wheat, Winter, cv Riband); assay: Postemergence herbicidal evaluation; type: in vivo, Triticum aestivum; conditions: postemergence
In short: (§1)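 Seedlings grown about two weeks were sprayed at 40 psi with compound dispersed in 50/50 acetone/water plus 0.5% TWEEN 20, at about 0.0156 to 0.500 kg/ha. Plants were kept in the greenhouse and scored 4–5 weeks later on a 0–9 visual scale against untreated controls.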

MOOVA (Monochoria) = assay: Preemergence weed control under flooded paddy conditions; type: in vivo, Monochoria vaginalis; conditions: rated 3-4 weeks after treatment
In short: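 Values are visual 0-9 scores against a control for a preemergence application into paddy flood water at about 0.0313 to 0.500 kg/ha. Greenhouse duration was three to four weeks.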

[2] = test system: CHEAL (Lambsquarters, Common); assay: Preemergence herbicidal evaluation; type: in vivo, Chenopodium album; conditions: rated 4-5 weeks after treatment
In short: (§2)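 Sown cups got a single aqueous acetone spray of test compound (roughly 0.0156–0.500 kg/ha) before seedlings emerged. Evaluation, 4–5 weeks on, used a 0–9 visual scale covering plant stand, vigor, size, malformation, chlorosis and general appearance compared with controls.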

[3] = test system: IPOHE (Morningglory, Ivyleaf); assay: Preemergence herbicidal evaluation; type: in vivo, Ipomoea hederacea; conditions: rated 4-5 weeks after treatment
In short: as §2

ABUTH (Velvetleaf) = assay: Postemergence herbicidal evaluation; type: in vivo, Abutilon theophrasti; conditions: postemergence
In short: as §1

[4] = test system: ECHORC (Watergrass (Calif.)); assay: Preemergence weed control under flooded paddy conditions; type: in vivo, Echinochloa oryzoides; conditions: rated 3-4 weeks after treatment
In short: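 First, seeds or propagules go into the top 0.5 cm of silt loam; next, water is held 1.5 to 3 cm over the soil; then compound (50/50 acetone/water) is pipetted into it at about 0.0313 to 0.500 kg/ha; finally plants are rated visually 0-9 after three to four weeks.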

[5] = test system: IPOHE (Morningglory, Ivyleaf); assay: Postemergence herbicidal evaluation; type: in vivo, Ipomoea hederacea; conditions: postemergence
In short: as §1

[6] = test system: TRZAWR (Wheat, Winter, cv Riband); assay: Preemergence herbicidal evaluation; type: in vivo, Triticum aestivum; conditions: rated 4-5 weeks after treatment
In short: as §2

CYPIR (Rice Flatsedge) = assay: Postemergence weed control under flooded paddy conditions; type: in vivo, Cyperus iria; conditions: postemergence weeds, 3-4 weeks after treatment
In short: (§3)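 Herbicidal effect is judged by eye on a 0–9 scale versus control, 3–4 weeks after dosing. Dosing is into flood water kept 1.5–3 cm over the soil, at about 0.0313–0.500 kg/ha in aqueous/acetone 50/50 v/v, on 3–5 cm weeds and 1.5–2.5-leaf rice seedlings.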

[7] = test system: ECHORC (Watergrass (Calif.)); assay: as above; type: in vivo, Echinochloa oryzoides; conditions: postemergence weeds, 3-4 weeks after treatment
In short: as §3

ECHCG (Barnyardgrass) = assay: Preemergence herbicidal evaluation; type: in vivo, Echinochloa crus-galli; conditions: rated 4-5 weeks after treatment
In short: as §2

SETVI (Foxtail, Green) = assay: Preemergence herbicidal evaluation; type: in vivo, Setaria viridis; conditions: rated 4-5 weeks after treatment
In short: as §2

ORYSAT (Rice, Tebonnet) = assay: Preemergence herbicidal evaluation; type: in vivo, Oryza sativa, (L.) Tebonnet; conditions: rated 4-5 weeks after treatment
In short: as §2

CCC1SC(=Nc2cc(-n3c(=O)cc(C(F)(F)F)n(C)c3=O)c(F)cc2Cl)N(C)C1=O (stereo not shown) [Compound 10]
TRZAWR herbicidal rating ([1]; rate 0.0156 kg/ha): 2.5
TRZAWR herbicidal rating ([1]; rate 0.0313 kg/ha): 3.3
TRZAWR herbicidal rating ([1]; rate 0.0625 kg/ha): 3.3
TRZAWR herbicidal rating ([1]; rate 0.1250 kg/ha): 3.5
Herbicidal rating MOOVA (MOOVA (Monochoria); 0.0313 kg/ha): 9.0
Herbicidal rating MOOVA (MOOVA (Monochoria); 0.0625 kg/ha): 9.0
Herbicidal rating MOOVA (MOOVA (Monochoria); 0.1250 kg/ha): 9.0
Herbicidal rating MOOVA (MOOVA (Monochoria); 0.2500 kg/ha): 9.0
CHEAL preemergence herbicidal rating ([2]; rate 0.0156 kg/ha): 9.0
CHEAL preemergence herbicidal rating ([2]; rate 0.0313 kg/ha): 9.0
CHEAL preemergence herbicidal rating ([2]; rate 0.0625 kg/ha): 9.0
CHEAL preemergence herbicidal rating ([2]; rate 0.1250 kg/ha): 9.0
CHEAL preemergence herbicidal rating ([2]; rate 0.2500 kg/ha): 9.0
IPOHE preemergence herbicidal rating ([3]; rate 0.0156 kg/ha): 2.0
IPOHE preemergence herbicidal rating ([3]; rate 0.0313 kg/ha): 3.0
IPOHE preemergence herbicidal rating ([3]; rate 0.0625 kg/ha): 5.3
IPOHE preemergence herbicidal rating ([3]; rate 0.1250 kg/ha): 8.3
IPOHE preemergence herbicidal rating ([3]; rate 0.2500 kg/ha): 9.0
ABUTH herbicidal rating (ABUTH (Velvetleaf); rate 0.0156 kg/ha): 9.0
ABUTH herbicidal rating (ABUTH (Velvetleaf); rate 0.0313 kg/ha): 6.5
ABUTH herbicidal rating (ABUTH (Velvetleaf); rate 0.0625 kg/ha): 7.0
ABUTH herbicidal rating (ABUTH (Velvetleaf); rate 0.1250 kg/ha): 9.0
Herbicidal rating ECHORC ([4]; 0.0313 kg/ha): 0.0
Herbicidal rating ECHORC ([4]; 0.0625 kg/ha): 1.0
Herbicidal rating ECHORC ([4]; 0.1250 kg/ha): 2.0
Herbicidal rating ECHORC ([4]; 0.2500 kg/ha): 2.0
IPOHE herbicidal rating ([5]; rate 0.0156 kg/ha): 3.0
IPOHE herbicidal rating ([5]; rate 0.0313 kg/ha): 7.0
IPOHE herbicidal rating ([5]; rate 0.0625 kg/ha): 9.0
IPOHE herbicidal rating ([5]; rate 0.1250 kg/ha): 8.0
TRZAWR preemergence herbicidal rating ([6]; rate 0.0156 kg/ha): 1.0
TRZAWR preemergence herbicidal rating ([6]; rate 0.0313 kg/ha): 3.5
TRZAWR preemergence herbicidal rating ([6]; rate 0.0625 kg/ha): 5.5
TRZAWR preemergence herbicidal rating ([6]; rate 0.1250 kg/ha): 6.5
TRZAWR preemergence herbicidal rating ([6]; rate 0.2500 kg/ha): 7.5
Herbicidal rating CYPIR (CYPIR (Rice Flatsedge); rate 0.0313 kg/ha): 0.0
Herbicidal rating CYPIR (CYPIR (Rice Flatsedge); rate 0.0625 kg/ha): 0.0
Herbicidal rating CYPIR (CYPIR (Rice Flatsedge); rate 0.1250 kg/ha): 2.0
Herbicidal rating CYPIR (CYPIR (Rice Flatsedge); rate 0.2500 kg/ha): 4.0
Herbicidal rating ECHORC ([7]; rate 0.0313 kg/ha): 0.0
Herbicidal rating ECHORC ([7]; rate 0.0625 kg/ha): 1.0
Herbicidal rating ECHORC ([7]; rate 0.1250 kg/ha): 2.0
Herbicidal rating ECHORC ([7]; rate 0.2500 kg/ha): 2.0
ECHCG preemergence herbicidal rating (ECHCG (Barnyardgrass); rate 0.0156 kg/ha): 2.0
ECHCG preemergence herbicidal rating (ECHCG (Barnyardgrass); rate 0.0313 kg/ha): 4.0
ECHCG preemergence herbicidal rating (ECHCG (Barnyardgrass); rate 0.0625 kg/ha): 7.0
ECHCG preemergence herbicidal rating (ECHCG (Barnyardgrass); rate 0.1250 kg/ha): 9.0
ECHCG preemergence herbicidal rating (ECHCG (Barnyardgrass); rate 0.2500 kg/ha): 9.0
SETVI preemergence herbicidal rating (SETVI (Foxtail, Green); rate 0.0156 kg/ha): 2.3
SETVI preemergence herbicidal rating (SETVI (Foxtail, Green); rate 0.0313 kg/ha): 5.7
SETVI preemergence herbicidal rating (SETVI (Foxtail, Green); rate 0.0625 kg/ha): 9.0
SETVI preemergence herbicidal rating (SETVI (Foxtail, Green); rate 0.1250 kg/ha): 9.0
SETVI preemergence herbicidal rating (SETVI (Foxtail, Green); rate 0.2500 kg/ha): 9.0
ORYSAT preemergence herbicidal rating (ORYSAT (Rice, Tebonnet); rate 0.0156 kg/ha): 1.0
ORYSAT preemergence herbicidal rating (ORYSAT (Rice, Tebonnet); rate 0.0313 kg/ha): 3.0
ORYSAT preemergence herbicidal rating (ORYSAT (Rice, Tebonnet); rate 0.0625 kg/ha): 4.5
ORYSAT preemergence herbicidal rating (ORYSAT (Rice, Tebonnet); rate 0.1250 kg/ha): 6.5
ORYSAT preemergence herbicidal rating (ORYSAT (Rice, Tebonnet); rate 0.2500 kg/ha): 7.5
